According to ChEMBL document CHEMBL3351604, “Rhytidenones A-F, Spirobisnaphthalenes from Rhytidhysteron sp. AS21B, an Endophytic Fungus” (J Nat Prod, 2014):
Activity calls are given as the source filed them. The calls are words filed in the database; no cut-off is given here.

Key:
J774.A1 = assay: Antiinflammatory activity in mouse J774A1 cells assessed as inhibition of LPS-stimulated NO production pretreated at 10 uM for 2 hrs followed by LPS addition measured after 18 hrs post LPS challenge by spectrophotometry; format: functional, cell-based
[1] = Cytotoxicity against mouse J774A1 cells by MTT assay; format: cell-based; conditions: j774.a1
[2] = Antiinflammatory activity in mouse J774A1 cells assessed as inhibition of LPS-stimulated NO production pretreated for 2 hrs followed by LPS addition measured after 18 hrs post LPS challenge by spectrophotometry; format: functional, cell-based; conditions: J774.A1

| IC50 [2] | Compound | Activity [1] | also measured |
| --- | --- | --- | --- |
|  | OC1C=CC(O)C2C1C(O)CCC21Oc2cccc3cccc(c23)O1 (stereo not given) |  | inhibition (J774.A1): inactive |
|  | CO[C@@H]1CC(=O)C2=CCCC3(Oc4cccc5cccc(c45)O3)[C@@H]2[C@@H]1O | Toxic |  |
| 310 nM | O=C1C[C@H](O)[C@@H](O)[C@@H]2C1=CCCC21Oc2cccc3cccc(c23)O1 |  |  |
|  | O=C1C=C[C@@H](O)[C@@H]2C1=CCCC21Oc2cccc3cccc(c23)O1 | Toxic |  |
| 3600 nM | O=C1C[C@@H](O)[C@@H](O)[C@@H]2C1=CCCC21Oc2cccc3cccc(c23)O1 |  |  |
